Experimental data as given in PubChem BioAssay (NCI).
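Grown in 96-well plates, cells were treated for 48 hours with each compound at five concentrations. Insufficient inhibition: endpoint recorded as highest concentration tested. GI50 marks 50% less growth. The concentration for full growth arrest is given as TGI.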

system: DMS 273 small cell lung; assay: inhibition of tumour cell growth, NCI panel, 48 h

**Q.** What does the source list for `CCOC(=O)C(N)C[S][Sn]([CH3])([CH3])[Cl]` (configuration not stated)?
**A.** GI50: > 100 µM; TGI: > 100 µM

**Q.** How did the TGI turn out when `CC(=O)OCC1OC(N2C(=O)C(=O)c3cc(C)ccc32)C(OC(C)=O)C(OC(C)=O)C1OC(C)=O` (configuration not stated) was run?
**A.** > 100 µM

**Q.** How did the TGI turn out when `O=C1c2ccccc2-c2cccc3ccc(Cc4ccc5ccccc5c4)c1c23` was run?
**A.** > 100 µM

**Q.** `COc1cc(Cl)c2c3c(c(C(C)=O)oc13)CCC2` was tested. Which TGI did it give?
**A.** > 100 µM

**Q.** `CCCCc1c2c(nc3c1CCC/C3=C\c1ccccc1)C(=O)CCC2` was tested. Which TGI did it give?
**A.** 65.6 µM

**Q.** For `COc1ccc([N+]2=NC(c3ccc([N+](=O)[O-])cc3)=NN(c3ccccc3)C2)cc1`, which TGI is on record?
**A.** > 100 µM

**Q.** With `C=CC1(C(=O)O)CCC(C(C)(C)C)CC1` (configuration not stated) as the compound, how does the TGI read?
**A.** > 100 µM

**Q.** `NC(=O)C(=Cc1ccc(C(O)P(=O)(O)O)cc1)C(N)=O` (configuration not stated) was tested. Which TGI did it give?
**A.** > 100 µM

**Q.** With `O=C(Nc1cc(Cl)c(Cl)cc1Cl)C(=O)C1C=CCS1(=O)=O` (configuration not stated) as the compound, how does the TGI read?
**A.** > 100 µM

**Q.** With `CCNC(=O)CCN(C(=O)O)S(=O)(=O)c1ccc(NC(=O)c2ccccc2)cc1` as the compound, how does the TGI read?
**A.** 41.3 µM

**Q.** `O=C(/C=C/c1ccc([N+](=O)[O-])o1)N1CCN(Cc2ccccc2)CC1` was tested. Which TGI did it give?
**A.** 24 µM

**Q.** Which TGI does the source give for `CC1C[C@@]2(c3ccccc3)C(=O)CCC[C@H]2N1` (some centres not stated) here?
**A.** > 100 µM

**Q.** For `O=[N+]([O-])c1cccc(/C=N\NS(=O)(=O)c2ccc(Cl)cc2)c1O`, which TGI is on record?
**A.** > 100 µM

**Q.** Which TGI does the source give for `CC1=C(C(=O)Nc2ccccc2C)C(c2ccc(Cl)c(Cl)c2)C(C(=O)Nc2ccccc2C)=C(C)N1` here?
**A.** 41.1 µM

**Q.** For `Cc1[nH]c2ccccc2c1C1Cc2ccccc2N1C(=O)/C=C\C(=O)O` (configuration not stated), which TGI is on record?
**A.** > 100 µM

**Q.** With `CCOC(=O)Nc1nc2ccc(Cn3cccc3)cc2[nH]1` as the compound, how does the TGI read?
**A.** > 100 µM

system: RXF-631 renal; assay: inhibition of tumour cell growth, NCI panel, 48 h

**Q.** `c1ccc2c(c1)CCC/C2=N\OCC1CO1` (configuration not stated) was tested. Which TGI did it give?
**A.** > 100 µM

**Q.** Which TGI does the source give for `COC(=O)C1C(C(=O)OC)C2(OC)c3ccccc3-c3ccccc3C12` (configuration not stated) here?
**A.** > 100 µM

**Q.** For `O=C1OC(CC(=O)c2ccc(Cl)c(Cl)c2)C(Cl)=C1Cl` (configuration not stated), which TGI is on record?
**A.** > 100 µM

**Q.** With `CCN(CC)CC(O)CNc1ccc(NCC2CO2)c2c1C(=O)c1ccccc1C2=O` (configuration not stated) as the compound, how does the TGI read?
**A.** 2.24 µM

**Q.** `CCOC(=O)NC(=O)c1cn(CC(=O)NCC(=O)NCC(=O)NCCCN2CCN(CCCNC(=O)CNC(=O)CNC(=O)Cn3cc(C(=O)NC(=O)OCC)c(=O)[nH]c3=O)CC2)c(=O)[nH]c1=O` was tested. Which TGI did it give?
**A.** > 100 µM

**Q.** Which TGI does the source give for `CCN(CC)CCCC(C)Nc1c2ccc(Cl)cc2nc2ccc(OC)cc12` (configuration not stated) here?
**A.** 3.55 µM

**Q.** `O=S(=O)(N/N=C/c1ccc(/C=N/NS(=O)(=O)c2ccccc2)cc1)c1ccccc1` was tested. Which TGI did it give?
**A.** > 100 µM

**Q.** For `CC[C@@H]1OC2(C)CC(S(=O)(=O)c3ccccc3O)CC1O2` (some centres not stated), which TGI is on record?
**A.** > 100 µM

**Q.** `NNC(=O)/C(=C/c1ccc(Cl)c(Cl)c1)NC(=O)c1ccccc1` was tested. Which TGI did it give?
**A.** > 100 µM

**Q.** `O=C1c2ccccc2-c2cccc3ccc(Cc4ccc5ccccc5c4)c1c23` was tested. Which TGI did it give?
**A.** > 100 µM

**Q.** For `COc1cc(Cl)c2c3c(c(C(C)=O)oc13)CCC2`, which TGI is on record?
**A.** > 100 µM

**Q.** Which TGI does the source give for `C=CC1(C(=O)O)CCC(C(C)(C)C)CC1` (configuration not stated) here?
**A.** > 100 µM

**Q.** `NC(=O)C(=Cc1ccc(C(O)P(=O)(O)O)cc1)C(N)=O` (configuration not stated) was tested. Which TGI did it give?
**A.** > 100 µM

**Q.** `O=[N+]([O-])c1cccc(/C=N\NS(=O)(=O)c2ccc(Cl)cc2)c1O` was tested. Which TGI did it give?
**A.** > 100 µM

**Q.** How did the TGI turn out when `CC1=C(C(=O)Nc2ccccc2C)C(c2ccc(Cl)c(Cl)c2)C(C(=O)Nc2ccccc2C)=C(C)N1` was run?
**A.** 73.2 µM

**Q.** `CCCCOC(=O)NC(=O)c1cn(CCCOC(=O)CCCCCCCCC(=O)OCCCn2cc(C(=O)NC(=O)OCCCC)c(=O)[nH]c2=O)c(=O)[nH]c1=O` was tested. Which TGI did it give?
**A.** > 100 µM

**Q.** With `Cc1[nH]c2ccccc2c1C1Cc2ccccc2N1C(=O)/C=C\C(=O)O` (configuration not stated) as the compound, how does the TGI read?
**A.** > 100 µM

**Q.** For `CCOC(=O)Nc1nc2ccc(Cn3cccc3)cc2[nH]1`, which TGI is on record?
**A.** > 100 µM

system: M19-MEL melanoma; assay: inhibition of tumour cell growth, NCI panel, 48 h

**Q.** `c1ccc2c(c1)CCC/C2=N\OCC1CO1` (configuration not stated) was tested. Which TGI did it give?
**A.** > 100 µM

**Q.** How did the TGI turn out when `CC/C(C)=C1\CCC(CN2CCOCC2)C1=O` (configuration not stated) was run?
**A.** 30 µM

**Q.** How did the TGI turn out when `COC(=O)C1C(C(=O)OC)C2(OC)c3ccccc3-c3ccccc3C12` (configuration not stated) was run?
**A.** > 100 µM

**Q.** `O=C1OC(CC(=O)c2ccc(Cl)c(Cl)c2)C(Cl)=C1Cl` (configuration not stated) was tested. Which TGI did it give?
**A.** > 100 µM

**Q.** Which TGI does the source give for `CCN(CC)CC(O)CNc1ccc(NCC2CO2)c2c1C(=O)c1ccccc1C2=O` (configuration not stated) here?
**A.** 0.577 µM

**Q.** With `CC(=O)c1cccc(N2COC(C)(C)c3nc4ccccc4n3C2)c1` as the compound, how does the TGI read?
**A.** > 100 µM

**Q.** For `O=[N+]([O-])c1cccc(C2N3CCCCC3[C@@H]3c4[nH]c5ccccc5c4CCN23)c1` (some centres not stated), which TGI is on record?
**A.** 25 µM

**Q.** Which GI50 does the source give for `Cc1c[nH]c2c(O)cc3c(c12)[C@H](CCl)CN3C(=O)c1cc2cc(NC(=O)Nc3ccc4[nH]c(C(=O)N5C[C@@H](CCl)c6c5cc(O)c5[nH]cc(C)c65)cc4c3)ccc2[nH]1` here?
**A.** 1.14 ng/mL

**Q.** What about the TGI of the same compound?
**A.** 3.44 ng/mL

**Q.** Which TGI does the source give for `CCOC(=O)NC(=O)c1cn(CC(=O)NCC(=O)NCC(=O)NCCCN2CCN(CCCNC(=O)CNC(=O)CNC(=O)Cn3cc(C(=O)NC(=O)OCC)c(=O)[nH]c3=O)CC2)c(=O)[nH]c1=O` here?
**A.** > 100 µM

**Q.** Which TGI does the source give for `CCN(CC)CCCC(C)Nc1c2ccc(Cl)cc2nc2ccc(OC)cc12` (configuration not stated) here?
**A.** 3.14 µM

**Q.** Which TGI does the source give for `O=S(=O)(N/N=C/c1ccc(/C=N/NS(=O)(=O)c2ccccc2)cc1)c1ccccc1` here?
**A.** > 100 µM

**Q.** With `CC[C@@H]1OC2(C)CC(S(=O)(=O)c3ccccc3O)CC1O2` (some centres not stated) as the compound, how does the TGI read?
**A.** > 100 µM

**Q.** Which results are given for `CCOC(=O)C(N)C[S][Sn]([CH3])([CH3])[Cl]` (configuration not stated)?
**A.** GI50: > 89.1 µM; TGI: > 100 µM

**Q.** With `NNC(=O)/C(=C/c1ccc(Cl)c(Cl)c1)NC(=O)c1ccccc1` as the compound, how does the TGI read?
**A.** > 100 µM

**Q.** For `CC(=O)OCC1OC(N2C(=O)C(=O)c3cc(C)ccc32)C(OC(C)=O)C(OC(C)=O)C1OC(C)=O` (configuration not stated), which TGI is on record?
**A.** > 100 µM

**Q.** For `O=C1c2ccccc2-c2cccc3ccc(Cc4ccc5ccccc5c4)c1c23`, which TGI is on record?
**A.** > 100 µM

**Q.** `COc1cc(Cl)c2c3c(c(C(C)=O)oc13)CCC2` was tested. Which TGI did it give?
**A.** > 100 µM

**Q.** `CC(=O)Nc1ccc(C(=O)NN2C(=O)C(Cl)C2c2ccc(Cl)cc2)cc1` (configuration not stated) was tested. Which TGI did it give?
**A.** > 100 µM

**Q.** Which TGI does the source give for `CCCCc1c2c(nc3c1CCC/C3=C\c1ccccc1)C(=O)CCC2` here?
**A.** 34.4 µM

**Q.** Which TGI does the source give for `C=CC1(C(=O)O)CCC(C(C)(C)C)CC1` (configuration not stated) here?
**A.** > 100 µM

**Q.** With `NC(=O)C(=Cc1ccc(C(O)P(=O)(O)O)cc1)C(N)=O` (configuration not stated) as the compound, how does the TGI read?
**A.** > 100 µM

**Q.** `O=C(Nc1cc(Cl)c(Cl)cc1Cl)C(=O)C1C=CCS1(=O)=O` (configuration not stated) was tested. Which TGI did it give?
**A.** > 100 µM

**Q.** Which TGI does the source give for `CCNC(=O)CCN(C(=O)O)S(=O)(=O)c1ccc(NC(=O)c2ccccc2)cc1` here?
**A.** > 100 µM

**Q.** How did the TGI turn out when `O=C(/C=C/c1ccc([N+](=O)[O-])o1)N1CCN(Cc2ccccc2)CC1` was run?
**A.** 21.8 µM

**Q.** For `CC1C[C@@]2(c3ccccc3)C(=O)CCC[C@H]2N1` (some centres not stated), which TGI is on record?
**A.** > 100 µM
